The values below are quoted from earlier work in patent US20250360135A1, “COMPOSITIONS COMPRISING DISODIUM 5,10-METHYLENE-(6R)-TETRAHYDROFOLATE” (MERCK PATENT GMBH, priority 2022, published 2025).

In the case of `Nc1nc2c(c(=O)[nH]1)N1CN(c3ccc(C(=O)N[C@@H](CCC(=O)O)C(=O)O)cc3)C[C@H]1CN2` [5,10-methylene-(6R,S)-tetrahydrofolic acid], the “purity after 7 hours” value (after 7 hours) was 84%. Moreover, under “after 24 hours”, the “normalized purity after 24 hours” value is on record as 45%. For the same compound, the “degradation rate (loss of purity per hour)” value (re-constituted lyophilizate, linear regression of stability profile) was 2.2 % purity per hour.
